The values below come from ChEMBL document CHEMBL1127902, “Synthesis of -estradiol-3-benzoate-17-(succinyl-12A-tetracycline): A potential bone-seeking estrogen” (Bioorg Med Chem Lett, 1994).

The assay in a line: Percent of compound bound to bone mineral hydroxylapatite was determined […]. To be noted: Bone element.
In turn, `C[C@]12CC[C@@H]3c4ccc(O)cc4CC[C@H]3[C@@H]1CC[C@@H]2O` came in with a Binding of under 1%.
`CN(C)[C@@H]1C(O)=C(C(N)=O)C(=O)[C@@]2(O)C(O)=C3C(=O)c4c(O)cccc4[C@@](C)(O)[C@H]3C[C@@H]12` yielded a Binding of over 99%.
`C[C@]12CC[C@@H]3c4ccc(OC(=O)c5ccccc5)cc4CC[C@H]3[C@@H]1CC[C@@H]2O` returned a Binding of under 1%.
The molecule `CN(C)[C@@H]1C(=O)C(C(N)=O)=C(O)[C@@]2(OC(=O)CCC(=O)O[C@H]3CC[C@H]4[C@@H]5CCc6cc(OC(=O)c7ccccc7)ccc6[C@H]5CC[C@]34C)C(O)=C3C(=O)c4c(O)cccc4[C@@](C)(O)C3CC12` (some centres undefined) registered a Binding of over 99%.
